Test results as given in US11365184B2, “Antiproliferative compounds, and their pharmaceutical compositions and uses” (Celgene Corporation, priority 2016, dated 2022).
pIC50: −log10 of the molar value.

test system: KG-1 cell line; test: KG-1 cell proliferation assay (Cell Titer-Glo); format: cell-based; conditions: Homo sapiens; KG-1 cells, 72 hours post-treatment, Cell Titer-Glo luminescence; read-out: FCA Prolif Cell TiterGlo KG-1 72 h (IC50)
Procedure: The following is an example of an assay that can be used to determine the anti-proliferative activity of Compound A and Compound B in KG-1 cell line (American Type Culture Collection [ATCC]: catalogue number ATCC© CCL-246™) at 72 hours post-treatment. The seeding density for KG-1 can be optimized to ensure assay linearity in 384-well plates.
Increasing concentrations of test compounds (0.5 nM to 10 μM) was spotted in a 10-point serial dilution fashion (3-fold dilution) in duplicate via an acoustic dispenser (EDC ATS-100) into an empty 384-well plate. The dimethyl sulfoxide (DMSO) concentration was kept constant for a final assay concentration of 0.1% DMSO. Prior to testing, KG-1 cells were grown in RPMI-1640 (Roswell Park Memorial Institute-1640) medium with 10% FBS (fetal bovine serum: HyClone) and expanded in culture flasks to provide sufficient amounts of starting material. Cells were then diluted to 5000 cells per well, in a 50 μL volume and added directly to the compound-spotted 384-well plates. Cells were allowed to grow for 72 hours in 5% CO2 at 37° C. At the time when exposure of cells to compound began (to), initial viable cell number was assessed via Cell Titer-Glo® Luminescent Cell Viability Assay at a 1 vol: 2 vol ratio according to manufacturer's instructions (Promega Corporation, Madison, Wis.) by quantifying the level of luminescence generated by adenosine-5′-triphosphate (ATP) present in viable cells. After 72 hours, cell viability of the treated cells is assessed via Cell Titer-Glo® and read for luminescence.

Structure (SMILES)	pIC50
O=C1CCC(N2Cc3cc(CNC(=O)C(F)(F)c4ccc(F)cc4)ccc3C2=O)C(=O)N1COP(=O)(O)O (stereo not drawn)	6.15 to 7.00
CC(C)[C@H](N)C(=O)OCN1C(=O)CCC(N2Cc3cc(CNC(=O)C(F)(F)c4ccc(F)cc4)ccc3C2=O)C1=O (stereo partly drawn)	7.00 to 8.00
O=C1CCC(N2Cc3cc(CNC(=O)C(F)(F)c4ccc(Cl)cc4)ccc3C2=O)C(=O)N1COP(=O)(O)O (stereo not drawn)	6.15 to 7.00
